Experimental data taken from patent publication US8906944B2, “Compounds as tyrosine kinase modulators” (Allergan, Inc., priority 2009, dated 2014).

Tests used:
[1] = biological target: T1, human VEGF receptor (VEGFR-2) (Homo sapiens, UniProt P35968); test: VEGFR2 kinase assay; assay type: biochemical; details: His-VEGFR-2 cytoplasmic domain, 3.6 μM ATP; Table IV, amide or urea linker; read-out: VEGFR2 Enzyme IC50
T1 construct: The cytoplasmic domain of the human VEGF receptor (VEGFR-2) was expressed; His; made in house; host or cells: insect cells (baculovirus)
How it was run: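 His-tagged VEGFR-2 cytoplasmic domain from baculovirus-infected insect cells phosphorylating plate-bound poly-Glu-Tyr (4:1). IC50 from blank-subtracted optical density versus compound concentration.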

VEGFR1 = VEGFR1 (Homo sapiens, UniProt P17948); test: VEGFR1 enzyme assay; assay type: biochemical; details: Table IV, amide or urea linker
PDGFβ = PDGFβ (Homo sapiens, UniProt P09619); test: PDGFβ enzyme assay; assay type: biochemical; details: Table IV, amide or urea linker
VEGFR2 = VEGFR2 (Homo sapiens, UniProt P35968); test: VEGF stimulated Ca++ signal in vitro (FLIPR)
Chain of VEGFR2 (P35968 20-1356): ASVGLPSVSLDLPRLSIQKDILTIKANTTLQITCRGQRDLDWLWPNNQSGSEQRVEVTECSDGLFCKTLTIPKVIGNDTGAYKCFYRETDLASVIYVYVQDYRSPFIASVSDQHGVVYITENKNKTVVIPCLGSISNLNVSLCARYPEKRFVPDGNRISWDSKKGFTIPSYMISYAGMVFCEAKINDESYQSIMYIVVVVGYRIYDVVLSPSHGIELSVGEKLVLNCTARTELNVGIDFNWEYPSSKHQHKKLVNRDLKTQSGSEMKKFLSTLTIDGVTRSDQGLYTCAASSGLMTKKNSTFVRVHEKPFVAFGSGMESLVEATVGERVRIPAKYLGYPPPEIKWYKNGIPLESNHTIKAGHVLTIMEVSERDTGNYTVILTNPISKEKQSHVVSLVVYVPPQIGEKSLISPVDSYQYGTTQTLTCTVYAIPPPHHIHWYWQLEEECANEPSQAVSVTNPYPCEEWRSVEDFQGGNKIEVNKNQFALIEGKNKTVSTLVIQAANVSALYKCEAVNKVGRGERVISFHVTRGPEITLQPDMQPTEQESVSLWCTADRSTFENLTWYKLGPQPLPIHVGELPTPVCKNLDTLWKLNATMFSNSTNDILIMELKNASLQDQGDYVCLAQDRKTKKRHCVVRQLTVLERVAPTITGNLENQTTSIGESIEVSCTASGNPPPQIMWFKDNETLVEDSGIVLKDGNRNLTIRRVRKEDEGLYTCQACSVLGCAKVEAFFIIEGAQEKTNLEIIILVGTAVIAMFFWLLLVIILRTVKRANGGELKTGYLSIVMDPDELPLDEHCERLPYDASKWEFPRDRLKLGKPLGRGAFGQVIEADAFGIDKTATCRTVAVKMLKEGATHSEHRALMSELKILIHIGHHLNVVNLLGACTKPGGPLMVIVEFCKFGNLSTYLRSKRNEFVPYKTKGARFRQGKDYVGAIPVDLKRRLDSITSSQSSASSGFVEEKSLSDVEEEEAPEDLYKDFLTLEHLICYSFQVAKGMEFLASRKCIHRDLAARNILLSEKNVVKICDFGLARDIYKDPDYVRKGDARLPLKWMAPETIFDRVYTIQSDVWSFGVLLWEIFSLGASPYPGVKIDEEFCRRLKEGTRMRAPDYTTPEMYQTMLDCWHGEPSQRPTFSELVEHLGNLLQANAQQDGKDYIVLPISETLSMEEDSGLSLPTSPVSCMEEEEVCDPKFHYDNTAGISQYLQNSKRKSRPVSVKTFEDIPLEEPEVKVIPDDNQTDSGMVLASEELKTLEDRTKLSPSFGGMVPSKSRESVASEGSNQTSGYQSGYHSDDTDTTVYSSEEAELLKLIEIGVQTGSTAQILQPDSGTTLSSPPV
Method: VEGF Stimulated Ca^++Signal in Vitro
Automated FLIPR (Fluorometric Imaging Plate Reader) technology was used to screen for inhibitors of VEGF induced increases in intracellular calcium levels in fluorescent dye loaded endothelial cells. HUVEC (human umbilical vein endothelial cells) (Clonetics) were seeded in 96-well fibronectin coated black-walled plates overnight at 37 degree. C./5% CO2. […] C. Cells were washed 4 times (Original Cell Wash, Labsystems) to remove extracellular dye. […] Data were generated by determining max-min fluorescence levels for unstimulated, stimulated, and drug treated samples. IC50 values for test compounds were calculated from % inhibition of VEGF stimulated responses in the absence of inhibitor.

T1 sequence (P35968 786-1356 limits assumed): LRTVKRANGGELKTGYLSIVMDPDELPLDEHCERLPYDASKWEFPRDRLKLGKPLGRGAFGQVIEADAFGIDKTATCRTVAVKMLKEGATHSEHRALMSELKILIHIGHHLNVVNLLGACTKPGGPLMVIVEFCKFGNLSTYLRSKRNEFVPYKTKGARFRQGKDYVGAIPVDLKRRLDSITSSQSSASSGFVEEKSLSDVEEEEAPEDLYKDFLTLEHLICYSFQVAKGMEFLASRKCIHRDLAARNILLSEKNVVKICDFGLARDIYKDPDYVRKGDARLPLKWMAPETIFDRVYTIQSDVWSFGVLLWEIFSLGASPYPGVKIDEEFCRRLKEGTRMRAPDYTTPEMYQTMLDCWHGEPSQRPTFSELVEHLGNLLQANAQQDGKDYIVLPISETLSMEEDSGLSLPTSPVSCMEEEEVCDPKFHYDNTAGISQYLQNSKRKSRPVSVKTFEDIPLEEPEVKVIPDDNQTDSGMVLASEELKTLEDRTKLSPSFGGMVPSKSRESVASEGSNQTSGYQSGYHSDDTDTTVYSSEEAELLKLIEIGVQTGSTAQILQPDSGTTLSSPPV
Chain of PDGFβ (P09619 33-1106): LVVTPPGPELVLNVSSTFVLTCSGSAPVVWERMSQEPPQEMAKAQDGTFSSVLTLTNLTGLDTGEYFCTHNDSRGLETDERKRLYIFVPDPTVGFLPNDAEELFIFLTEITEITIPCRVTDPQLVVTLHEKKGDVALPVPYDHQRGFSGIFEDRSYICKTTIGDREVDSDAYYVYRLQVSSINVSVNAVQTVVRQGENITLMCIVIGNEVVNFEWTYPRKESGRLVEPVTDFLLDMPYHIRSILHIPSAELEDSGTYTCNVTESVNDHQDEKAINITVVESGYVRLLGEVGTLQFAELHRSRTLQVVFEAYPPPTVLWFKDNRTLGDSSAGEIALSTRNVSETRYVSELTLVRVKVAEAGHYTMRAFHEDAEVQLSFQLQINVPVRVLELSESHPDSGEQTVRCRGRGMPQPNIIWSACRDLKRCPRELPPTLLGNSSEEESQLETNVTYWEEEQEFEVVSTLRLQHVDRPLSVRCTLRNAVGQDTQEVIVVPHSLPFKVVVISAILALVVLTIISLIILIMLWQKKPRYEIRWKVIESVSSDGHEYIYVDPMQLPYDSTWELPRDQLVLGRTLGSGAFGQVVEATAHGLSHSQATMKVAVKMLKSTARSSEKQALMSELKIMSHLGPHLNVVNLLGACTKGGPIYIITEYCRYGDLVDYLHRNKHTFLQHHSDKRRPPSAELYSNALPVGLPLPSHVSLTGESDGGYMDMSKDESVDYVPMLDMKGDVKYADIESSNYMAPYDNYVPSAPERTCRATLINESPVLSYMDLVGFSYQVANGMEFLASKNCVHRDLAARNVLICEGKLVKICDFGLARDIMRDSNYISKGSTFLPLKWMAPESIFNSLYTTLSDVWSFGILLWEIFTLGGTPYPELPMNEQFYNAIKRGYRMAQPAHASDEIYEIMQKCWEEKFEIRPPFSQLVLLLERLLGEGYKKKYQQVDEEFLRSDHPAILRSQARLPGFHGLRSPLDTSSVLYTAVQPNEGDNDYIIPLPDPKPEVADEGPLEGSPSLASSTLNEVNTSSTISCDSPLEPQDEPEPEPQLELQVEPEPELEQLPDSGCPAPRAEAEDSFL
Chain of VEGFR1 (P17948 27-1338, species assumed): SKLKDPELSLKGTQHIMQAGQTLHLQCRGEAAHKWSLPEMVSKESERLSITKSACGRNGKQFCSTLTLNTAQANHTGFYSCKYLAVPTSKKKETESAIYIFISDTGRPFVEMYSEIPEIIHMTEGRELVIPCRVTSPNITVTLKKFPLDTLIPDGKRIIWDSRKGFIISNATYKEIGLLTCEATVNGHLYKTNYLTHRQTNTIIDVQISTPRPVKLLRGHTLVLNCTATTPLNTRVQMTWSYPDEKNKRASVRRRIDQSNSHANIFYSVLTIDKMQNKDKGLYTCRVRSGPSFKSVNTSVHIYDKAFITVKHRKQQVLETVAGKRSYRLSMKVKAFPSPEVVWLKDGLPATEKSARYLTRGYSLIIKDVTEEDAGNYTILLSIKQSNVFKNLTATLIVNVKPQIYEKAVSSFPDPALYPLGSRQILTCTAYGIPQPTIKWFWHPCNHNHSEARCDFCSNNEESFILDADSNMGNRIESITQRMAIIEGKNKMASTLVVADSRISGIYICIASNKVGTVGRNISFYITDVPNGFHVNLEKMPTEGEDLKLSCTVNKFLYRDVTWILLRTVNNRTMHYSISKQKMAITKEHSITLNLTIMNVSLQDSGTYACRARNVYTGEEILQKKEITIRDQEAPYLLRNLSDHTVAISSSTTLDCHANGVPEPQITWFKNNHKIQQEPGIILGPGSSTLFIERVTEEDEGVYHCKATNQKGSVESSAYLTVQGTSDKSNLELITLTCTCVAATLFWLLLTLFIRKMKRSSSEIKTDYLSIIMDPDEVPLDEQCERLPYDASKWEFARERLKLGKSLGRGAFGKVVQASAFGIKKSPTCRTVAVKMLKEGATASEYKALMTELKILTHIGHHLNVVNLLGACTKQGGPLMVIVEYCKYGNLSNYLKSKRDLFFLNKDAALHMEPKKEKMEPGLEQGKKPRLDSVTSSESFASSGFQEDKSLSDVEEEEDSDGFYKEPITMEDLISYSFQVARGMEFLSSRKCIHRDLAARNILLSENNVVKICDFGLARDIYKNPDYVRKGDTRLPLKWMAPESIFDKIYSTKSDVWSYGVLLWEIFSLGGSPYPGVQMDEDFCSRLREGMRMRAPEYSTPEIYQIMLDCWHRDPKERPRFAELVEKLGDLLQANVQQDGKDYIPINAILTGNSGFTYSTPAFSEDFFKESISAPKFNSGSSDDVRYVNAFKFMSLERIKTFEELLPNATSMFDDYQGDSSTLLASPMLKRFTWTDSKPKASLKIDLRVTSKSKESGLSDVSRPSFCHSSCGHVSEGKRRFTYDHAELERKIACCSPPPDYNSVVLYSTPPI

SMILES | IC50 [1] [nM] | IC50 (VEGFR1) [nM] | IC50 (PDGFβ) [nM] | IC50 (VEGFR2) [nM]
COC(=O)[C@@H]1C[C@@H](O)CN1CCNC(=O)c1c[nH]c(-c2cc(Oc3ccc(NC(=O)Nc4cc(C)ccc4F)cc3)ccn2)c1 (relative stereo) [Example 161, methyl rel-(2R,4S)-1-(2-{[(5-{4-[4-({[(2-fluoro-5-methylphenyl)amino]carbonyl}amino)phenoxy]pyridin-2-yl}-1H-pyrrol-3-yl)carbonyl]amino}ethyl)-4-hydroxypyrrolidine-2-carboxylate] | 9 | 9 | 20 | 10
COC(=O)[C@@H]1C[C@@H](O)CN1CCCNC(=O)c1c[nH]c(-c2cc(Oc3ccc(NC(=O)Nc4cc(C)ccc4F)cc3)ccn2)c1 (relative stereo) [Example 164, methyl rel-(2R,4S)-1-(3-{[(5-{4-[4-({[(2-fluoro-5-methylphenyl)amino]carbonyl}amino)phenoxy]pyridin-2-yl}-1H-pyrrol-3-yl)carbonyl]amino}propyl)-4-hydroxypyrrolidine-2-carboxylate] | 9 | 10 | 17 | 5
COC(=O)[C@@H]1C[C@@H](O)CN1CCCNC(=O)c1c[nH]c(-c2cc(Oc3ccc(NC(=O)Nc4cc(C)ccc4F)c(F)c3)ccn2)c1 (relative stereo) [Example 217, methyl rel-(2R,4S)-1-(3-{[(5-{4-[3-fluoro-4-({[(2-fluoro-5-methylphenyl)amino]carbonyl}amino)phenoxy]pyridin-2-yl}-1H-pyrrol-3-yl)carbonyl]amino}propyl)-4-hydroxypyrrolidine-2-carboxylate] | 5 | 10 | 21 | 10
COC(=O)CNCCCNC(=O)c1c[nH]c(-c2cc(Oc3ccc(NC(=O)Nc4cc(C)ccc4F)cc3)ccn2)c1 [Example 154, methyl [(3-{[(5-{4-[4-({[(2-fluoro-5-methylphenyl)amino]carbonyl}amino)phenoxy]pyridin-2-yl}-1H-pyrrol-3-yl)carbonyl]amino}propyl)amino]acetate] | 7 | 8 | 15 | 14
COC(=O)CNCCNC(=O)c1c[nH]c(-c2cc(Oc3ccc(NC(=O)Nc4cc(C)ccc4F)cc3)ccn2)c1 [Example 155, methyl [(2-{[(5-{4-[4-({[(2-fluoro-5-methylphenyl)amino]carbonyl}amino)phenoxy]pyridin-2-yl}-1H-pyrrol-3-yl)carbonyl]amino}ethyl)amino]acetate] | 8 | 7 | 20 | 4
COC(=O)CN(CCNC(=O)c1c[nH]c(-c2cc(Oc3ccc(NC(=O)Nc4cc(C)ccc4F)cc3)ccn2)c1)CC(=O)OC [Example 156, dimethyl 2,2′-[(2-{[(5-{4-[4-({[(2-fluoro-5-methylphenyl)amino]carbonyl}amino)phenoxy]pyridin-2-yl}-1H-pyrrol-3-yl)carbonyl]amino}ethyl)imino]diacetate] | 11 | 8 | 31 | 9
CCOC(=O)CN1CCN(CCNC(=O)c2c[nH]c(-c3cc(Oc4ccc(NC(=O)Nc5cc(C)ccc5F)cc4)ccn3)c2)CC1 [Example 157, ethyl [4-(2-{[(5-{4-[4-({[(2-fluoro-5-methylphenyl)amino]carbonyl}amino)phenoxy]pyridin-2-yl}-1H-pyrrol-3-yl)carbonyl]amino}ethyl)piperazin-1-yl]acetate] | 10 | 8 | 39 | 3
CCOC(=O)CN1CCN(CCCNC(=O)c2c[nH]c(-c3cc(Oc4ccc(NC(=O)Nc5cc(C)ccc5F)cc4)ccn3)c2)CC1 [Example 158, ethyl [4-(3-{[(5-{4-[4-({[(2-fluoro-5-methylphenyl)amino]carbonyl}amino)phenoxy]pyridin-2-yl}-1H-pyrrol-3-yl)carbonyl]amino}propyl)piperazin-1-yl]acetate] | 11 | 6 | 29 | 11
Cc1ccc(F)c(NC(=O)Nc2ccc(Oc3ccnc(-c4cc(C(=O)NCCCN5CCOC(CO)C5)c[nH]4)c3)cc2)c1 (centres unmarked) [Example 159, 5-{4-[4-({[(2-fluoro-5-methylphenyl)amino]carbonyl}amino)phenoxy]pyridin-2-yl}-N-{3-[2-(hydroxymethyl)morpholin-4-yl]propyl}-1H-pyrrole-3-carboxamide] | 11 | 9 | 33 | 26
COC(=O)CCCOC(=O)c1c[nH]c(-c2cc(Oc3ccc(NC(=O)Nc4cc(C)ccc4F)cc3)ccn2)c1 [Example 165, 4-methoxy-4-oxobutyl 5-{4-[4-({[(2-fluoro-5-methylphenyl)amino]carbonyl}amino)phenoxy]pyridin-2-yl}-1H-pyrrole-3-carboxylate] | 10 | 17 | 35 | 12
CCOC(=O)CCCCNC(=O)c1c[nH]c(-c2cc(Oc3ccc(NC(=O)Nc4cc(C)ccc4F)cc3)ccn2)c1 [Example 167, ethyl 5-{[(5-{4-[4-({[(2-fluoro-5-methylphenyl)amino]carbonyl}amino)phenoxy]pyridin-2-yl}-1H-pyrrol-3-yl)carbonyl]amino}pentanoate] | 9 | 21 | 27 | 11
CCOC(=O)N1CCN(CCNC(=O)c2c[nH]c(-c3cc(Oc4ccc(NC(=O)Nc5cc(C)ccc5F)c(F)c4)ccn3)c2)CC1 [Example 168, ethyl 4-(2-{[(5-{4-[3-fluoro-4-({[(2-fluoro-5-methylphenyl)amino]carbonyl}amino)phenoxy]pyridin-2-yl}-1H-pyrrol-3-yl)carbonyl]amino}ethyl)piperazine-1-carboxylate] | 10 | 17 | 12 | 11
CCOC(=O)N1CCN(CCCNC(=O)c2c[nH]c(-c3cc(Oc4cc(C(=O)Nc5cc(C)ccc5F)ccc4F)ccn3)c2)CC1 [Example 171, ethyl 4-{3-[({5-[4-(2-fluoro-5-{[(2-fluoro-5-methylphenyl)amino]carbonyl}phenoxy)pyridin-2-yl]-1H-pyrrol-3-yl}carbonyl)amino]propyl}piperazine-1-carboxylate] | 23 | 91 | 33 | 21
CCOC(=O)N1CCN(CCCNC(=O)c2c[nH]c(-c3cc(Oc4ccc(NC(=O)Nc5cc(C)ccc5F)c(F)c4)ccn3)c2)CC1 [Example 172, ethyl 4-(3-{[(5-{4-[3-fluoro-4-({[(2-fluoro-5-methylphenyl)amino]carbonyl}amino)phenoxy]pyridin-2-yl}-1H-pyrrol-3-yl)carbonyl]amino}propyl)piperazine-1-carboxylate] | 10 | 11 | 19 | 13
COC(=O)CNC(=O)c1c[nH]c(-c2cc(Oc3ccc(NC(=O)Nc4cc(C)ccc4F)c(F)c3)ccn2)c1 [Example 211, methyl {[(5-{4-[3-fluoro-4-({[(2-fluoro-5-methylphenyl)amino]carbonyl}amino)phenoxy]pyridin-2-yl}-1H-pyrrol-3-yl)carbonyl]amino}acetate] | 9 | 8 | 12 | 3
Cc1ccc(F)c(NC(=O)Nc2ccc(Oc3ccnc(-c4cc(C(=O)NCCCNC(=O)OC(C)(C)C)c[nH]4)c3)cc2F)c1 [Example 212, tert-butyl (3-{[(5-{4-[3-fluoro-4-({[(2-fluoro-5-methylphenyl)amino]carbonyl}amino)phenoxy]pyridin-2-yl}-1H-pyrrol-3-yl)carbonyl]amino}propyl)carbamate] | 13 | 20 | 45 | 6
COC(=O)CN(CCCNC(=O)c1c[nH]c(-c2cc(Oc3ccc(NC(=O)Nc4cc(C)ccc4F)c(F)c3)ccn2)c1)CC(=O)OC [Example 213, dimethyl 2,2′-[(3-{[(5-{4-[3-fluoro-4-({[(2-fluoro-5-methylphenyl)amino]carbonyl}amino)phenoxy]pyridin-2-yl}-1H-pyrrol-3-yl)carbonyl]amino}propyl)imino]diacetate] | 9 | 13 | 38 | 3
COC(=O)CN(CCNC(=O)c1c[nH]c(-c2cc(Oc3ccc(NC(=O)Nc4cc(C)ccc4F)c(F)c3)ccn2)c1)CC(=O)OC [Example 215, dimethyl 2,2′-[(2-{[(5-{4-[3-fluoro-4-({[(2-fluoro-5-methylphenyl)amino]carbonyl}amino)phenoxy]pyridin-2-yl}-1H-pyrrol-3-yl)carbonyl]amino}ethyl)imino]diacetate] | 5 | 13 | 34 | 4
CCOC(=O)CN1CCN(C(=O)c2c[nH]c(-c3cc(Oc4ccc(NC(=O)Nc5cc(C)ccc5F)c(F)c4)ccn3)c2)CC1 [Example 219, ethyl {4-[(5-{4-[3-fluoro-4-({[(2-fluoro-5-methylphenyl)amino]carbonyl}amino)phenoxy]pyridin-2-yl}-1H-pyrrol-3-yl)carbonyl]piperazin-1-yl}acetate] | 9 | 8 | 29 | 8
Cc1ccc(F)c(NC(=O)Nc2ccc(Oc3ccnc(-c4cc(C(=O)N5CCNCC5)c[nH]4)c3)cc2F)c1 [Example 221, 1-(2-fluoro-5-methylphenyl)-3-[2-fluoro-4-({2-[4-(piperazin-1-ylcarbonyl)-1H-pyrrol-2-yl]pyridin-4-yl}oxy)phenyl]urea] | 11 | 7 | 19 | 15
